“And” between values parts separate entries of the source, which are not always exact repeats. Equal values may be shown once.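 Grown in 96-well plates, cells were treated for 48 hours with each compound at five concentrations. Insufficient inhibition: endpoint recorded as highest concentration tested. GI50: concentration for 50% inhibition of growth. TGI is the concentration that stops growth completely.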 Some results are limits rather than exact numbers.

Drawing on PubChem BioAssay (NCI), this text covers TGI and GI50 for 17 compounds.

Test systems include SF-268 CNS; SNB-75 CNS; A549 NSCLC; M14 melanoma; HCT-116 colon; MOLT-4 leukemia; DU-145 prostate; T-47D breast; MDA-MB-231 breast; HS 578T breast.
What all share (assay): NCI tumour cell line growth inhibition, 48 h

Regarding `Cc1c(C(Cc2ccccc2N(C)C(=O)/C=C\C(=O)O)c2c[nH]c3ccccc23)c2ccccc2n1C` (stereo not given), the TGI in the assay on SF-268 CNS was 35.9 µM; in the assay with SNB-75 CNS it was 33.7 µM; in the assay on A549 NSCLC, 31.8 µM; in the assay on M14 melanoma, 39.5 µM; with HCT-116 colon it was 28.4 µM; in the assay on MOLT-4 leukemia it was 53.8 µM.
Turning to `N#CC(C(=O)CCCC(=O)Nc1ccccc1[N+](=O)[O-])c1c(Cl)cccc1Cl` (stereo not given), the TGI in the assay on SF-268 CNS, in the assay with SNB-75 CNS, in the assay with A549 NSCLC, in the assay with M14 melanoma, in the assay on HCT-116 colon and with MOLT-4 leukemia was > 100 µM each time.
As to `CC(=O)OC(C)(C)C1CC[C@]2(C)/C=C/C(C)C[C@@H](O)/C=C(\C)CC(O)C12` (stereo not given in full), the TGI with SF-268 CNS, in the assay on SNB-75 CNS, in the assay on A549 NSCLC, in the assay with M14 melanoma, in the assay with HCT-116 colon and in the assay on MOLT-4 leukemia was > 100 µM throughout.
Regarding `Cc1cc(N(CCC#N)CCC#N)ccc1/C=C(\NC(=O)/C=C/c1ccccc1)C(=O)N=[N+]=[N-]`, the TGI with SF-268 CNS was > 100 µM; with SNB-75 CNS it was 62 µM; in the assay on A549 NSCLC, > 100 µM; in the assay with M14 melanoma, > 100 µM; with HCT-116 colon, > 100 µM; in the assay with MOLT-4 leukemia it was > 100 µM.
With `CC(=O)N1C/C(=C\c2ccccc2)C(=O)/C(=C/c2ccccc2)C1`, the TGI amounted to 66.1 µM with SF-268 CNS; 40.9 µM with SNB-75 CNS; 55.1 µM with A549 NSCLC; 17.9 µM in the assay with M14 melanoma; 5.9 µM with HCT-116 colon; 23 µM with MOLT-4 leukemia.
In the case of `O=C(O)/C=C/c1ccc(O)c(O)c1`, the TGI in the assay with SF-268 CNS, in the assay on SNB-75 CNS, in the assay with DU-145 prostate, in the assay on A549 NSCLC, in the assay with M14 melanoma and in the assay on HCT-116 colon was > 100 µM throughout. For the same compound, the TGI with MOLT-4 leukemia was > 100 µM.
Turning to `COc1ccc(C2COc3c(ccc(OC)c3OC)C2=O)cc1OC` (stereo not given), the TGI in the assay with SF-268 CNS, in the assay on SNB-75 CNS, with A549 NSCLC, in the assay with M14 melanoma, in the assay with HCT-116 colon and in the assay on MOLT-4 leukemia was > 100 µM each time.
For `CC[C@@]1(OP(=O)(O)O)C(=O)OCc2c1cc1n(c2=O)Cc2cc3ccccc3nc2-1`, the GI50 is 0.0774 µM with SF-268 CNS, 0.143 µM in the assay on SNB-75 CNS, 0.12 µM in the assay with A549 NSCLC and 0.173 µM with M14 melanoma. Besides, the TGI with SF-268 CNS is 5.28 µM and 9.45 µM; with SNB-75 CNS, 3.31 µM and 17.3 µM; with DU-145 prostate, 0.598 µM; with T-47D breast, 0.867 µM; in the assay with A549 NSCLC, 7.33 µM and 12.3 µM; with M14 melanoma, 1.87 µM and 5.28 µM. In addition, the TGI with HCT-116 colon is 1.51 µM; with MOLT-4 leukemia, 0.147 µM and 0.395 µM.
For `Cc1ccc(S(=O)c2ccccc2[N+](=O)[O-])cc1` (stereo not given), the TGI in the assay on A549 NSCLC, in the assay with M14 melanoma and in the assay with MOLT-4 leukemia was > 100 µM throughout.
As to `NC1=C(O)c2cccc3cccc(c23)C1=O`, the TGI in the assay on SF-268 CNS, in the assay with SNB-75 CNS, in the assay with A549 NSCLC, in the assay on M14 melanoma, in the assay on HCT-116 colon and in the assay with MOLT-4 leukemia was > 100 µM throughout.
`CN(C)CC1CC/C(=C\c2ccc(Cl)c(Cl)c2)C1=O` (stereo not given): the TGI was > 74.3 µM in the assay with SF-268 CNS; > 66.6 µM with SNB-75 CNS; > 100 µM in the assay on A549 NSCLC; 48.5 µM in the assay on M14 melanoma; > 61.7 µM with HCT-116 colon; 19 µM with MOLT-4 leukemia.
`COc1ccc(C(=O)C(C(=O)CCC(=O)Nc2ccc(Cl)c(Cl)c2)c2ccc(OC)cc2)cc1` (stereo not given): the TGI with SF-268 CNS, with SNB-75 CNS, with A549 NSCLC, in the assay with M14 melanoma, in the assay on HCT-116 colon and with MOLT-4 leukemia was > 100 µM in each case.
Turning to `COc1ccc(-c2csc3c2-n2cccc2C3=O)cc1`, the GI50 in the assay on SF-268 CNS is 0.0434 µM; with DU-145 prostate it was 0.0601 µM; in the assay on HS 578T breast, 0.211 µM and 0.0224 µM; in the assay on A549 NSCLC, 0.0664 µM; in the assay on HCT-116 colon, 0.0199 µM; in the assay with MOLT-4 leukemia, 0.0352 µM. In addition, the TGI in the assay on SF-268 CNS is > 100 µM; in the assay with SNB-75 CNS, 0.434 µM; in the assay on MDA-MB-231 breast it was > 100 µM; with HS 578T breast, 0.095 µM; in the assay on A549 NSCLC it was > 100 µM; in the assay on HCT-116 colon, > 45.4 µM. For the same compound, the TGI in the assay on MOLT-4 leukemia is > 87.7 µM.
As for `CC(=O)/C(=C\c1ccc(Cl)cc1)c1ccccc1`, the GI50 was 0.201 µM with SF-268 CNS; 0.0691 µM in the assay with SNB-75 CNS; 0.285 µM in the assay on DU-145 prostate; 0.212 µM in the assay on MDA-MB-231 breast; 0.0832 µM in the assay with HS 578T breast; 0.255 µM in the assay with A549 NSCLC. Besides, the GI50 in the assay with MOLT-4 leukemia is 0.124 µM. Besides, the TGI with SF-268 CNS, in the assay with SNB-75 CNS, in the assay on DU-145 prostate, with MDA-MB-231 breast, in the assay with HS 578T breast and in the assay on A549 NSCLC was > 100 µM in each case. In addition, the TGI in the assay on MOLT-4 leukemia was > 100 µM.
Turning to `Cn1cc(C2NC(=O)c3ccccc3N2)c2ccccc21` (stereo not given), the TGI was > 100 µM with SF-268 CNS; > 100 µM in the assay on MDA-MB-231 breast; > 100 µM with A549 NSCLC; > 65.8 µM in the assay with M14 melanoma; > 20.4 µM in the assay with HCT-116 colon.
Regarding `C/C(CN1C(=O)c2ccccc2C1=O)=N\NS(=O)(=O)c1ccc2ccccc2c1`, the TGI with SF-268 CNS, with SNB-75 CNS, in the assay with A549 NSCLC, with M14 melanoma, with HCT-116 colon and in the assay on MOLT-4 leukemia was > 100 µM each time.
For the compound `O=C(/C=C/c1ccccc1)NC1C=Nc2ccc([N+](=O)[O-])cc2NC1=O` (stereo not given), the TGI with SF-268 CNS, in the assay with SNB-75 CNS, with A549 NSCLC, in the assay with M14 melanoma, with HCT-116 colon and in the assay with MOLT-4 leukemia was > 100 µM throughout.
